Patent US6525017B1, “Using glutathiane to protect neurons from injury” (The Children's Medical Center Corporation, priority 1989, dated 2003)

Legend:
[1] = system: NMDA receptor; assay: NMDA-induced responses recorded in intact chick retina (eyecup, optic nerve DC potential); format: cell-based
Method: Eyecups were obtained from 2-to 5-day-old chicks and continuously superfused at 20-25° C. at a rate of 8 ml/min with Tyrodes solution (130 mM NaCl, 3 mM KCl, 17 mM dextrose, 20 mM NaHCO3, 0.01% w/v phenol red; bubbled with a gas mixture of 95% O2 and 5% CO2) containing 5 mM MgCl2 to reduce synaptic activity. […] Traces were triggered by the opening of two solenoid valves that shunted approximately 200 μl of agonist (1, 1-dimethyl-4-phenyl-piperazinium iodide, DMPP or NMDA) into the perfusion line, Agonists reached the preparation approximately 7s later. […] Some experiments were performed in the presence of 10 μg/ml catalase and 1 μg/ml superoxide dismutase. Antagonists, reducing agents, or oxidizing agents were introduced directly via the perfusate.

[2] = system: non-NMDA receptors; assay: Whole-cell currents elicited by non-NMDA agonists in rat retinal ganglion cells; format: cell-based; settings: 125 μM kainate, 60 μM AMPA, 30 μM quisqualate
Method: The third central neuronal preparation in which the effects of oxidation and reduction on NMDA responses were tested was the isolated rat retinal ganglion cell. Postnatal retinal ganglion cells were identified and cultured as described in Lipton et al., supra. Physiological solutions and experimental protocol were the same as described for cortical neurons (Example 2), except that TTX was excluded from the extracellular fluid, since whole-cell recordings were performed on neurons that were solitary and had no apparent connections to other cells and no spontaneous action potentials.
In the retinal ganglion cells, we further tested the effects of DTT and DTNB on responses elicited by glutamate analogs acting at non-NMDA receptors to confirm our previous observations in the chick retina, i.e., a lack of effect of reduction and oxidation on responses induced by agonists acting at non-NMDA receptors.

[3] = system: retinal ganglion cells; assay: Survival of retinal ganglion cells exposed to glutamate (NMDA neurotoxicity); format: cell-based, rat
Method: To investigate the influence of redox modulation on NMDA neurotoxicity, survival of an identified central neuron, the retinal ganglion cell, was monitored for 12-24 hr after a brief (5-10 min.) exposure to DTT. To determine the degree of killing specifically related to activation of the NMDA receptor, APV at 200 μM was added to sibling cultures. APV-preventable, glutamate-induced death was increased 70±9% with DTT treatment.
Retinal ganglion cell neurons were labeled in situ, dissociated from the retina, and cultured as follows. Retinal ganglion cells from 7- to 12-day-old Long-Evans rats were labeled and enzymatically dissociated as described by Leifer et al., Science 224: 303, 1984. Following rinse of the dissociated retinal cells with a physiological saline based on Hanks' salts (composition in mM: NaCl, 137; NaHCO3, 1; Na2HPO4, 0.34; KCl, 5,36; KH2PO4, 0.44; CaCl2, 1.25, MgSO4, 0.5; MgCl2, 0.5; N-2-hydroxyethyl-piperazine-N′-2-ethanesulfonic acid (HEPES), 5; dextrose, 22.2; Phenol Red, 0.001% v/v; adjusted to pH 7.2 with 0.3 M NaOH), the cells were mechanically dispersed and aliquoted to treatment vials. These vials contained control saline solution, or saline solution with either 0.5-2 mM DTT, or 0.5 mM DTT in the presence of 1 mM DTNB. Treatment groups with DTNB were readjusted to pH 7.2 with 0.3 M NaOH. Cells were agitated gently over a 5-10 min period. After treatment, 100 μl volumes of the cell suspension were plated onto glass coverslips coated with poly-L-lysine in 35×10 mm tissue-culture dishes containing 2 ml of culture medium. The cell culture medium was based on Eagle's minimum essential medium (MEM), modified so that it was nominally free of magnesium and contained 10 mM CaCl2 to enhance NMDA receptor-mediated neuro-toxicity. The medium was also supplemented with methylcellulose 0.7% w/v, gentamicin 1 μg/ml, dextrose 16 mM, and rat serum 5% v/v. Glutamate levels in the culture medium were monitored by HPLC analysis. Concentrations of glutamate added to the medium of each experiment to induce cell killing averaged 10 μM (day to day variability in neuronal cell death was most probably due to slight variations in the amount of endogenous glutamate or a glutamate-like substance in these cultures). The 100 μl aliquots of cell suspension diluted into the 2 ml of MEM produced a final concentration of 50 μM Mg^2+, as well as levels of DTT and DTNB at 5% of their initial treatment concentrations. The cell cultures were incubated for 12-24 hours at 37° C. in an atmosphere of 5% CO2/95% humidified air. Neuronal survival was then scored by counting retinal ganglion cells displaying uptake and cleavage of fluorescein diacetate to fluorescein, as described by Hahn et al. Proc. Nat. Acad. Sci. USA 85:6556, 1988.
Experiments were conducted in triplicate and repeated on eleven separate days. In order to compare results obtained on different days, data were normalized such that the total number of surviving neurons in a given experiment divided by the number of treatment categories (i.e., 4) equalled 100.
Retinal cells were cultured as described in Example 1. In these experiments transient exposure to the reduced form of DTT (500 μM) occurred in the presence of DTNB (1 mM).

Structure (SMILES) | decrease of NMDA response following oxidation ([1]; 0.1-1.0 mM DTNB applied for 5 min, compared with controls, mean ± spread) | decrease of NMDA response following oxidation, range ([1]; 0.1-1.0 mM DTNB applied for 5 min, range) | responses elicited by kainate, AMPA or quisqualate after oxidation ([2]; 200 μM DTNB) | DTT-enhanced glutamate-induced death with concomitant DTNB ([3]; 0.5 mM DTT in the presence of 1 mM DTNB) | response to NMDA, % of control (potentiation) ([1]; 100 μM NMDA, DTT 1-2 mM applied for 10-25 min, mean ± spread) | response to NMDA, % of control, range ([1]; 100 μM NMDA, DTT 1-2 mM applied for 10-25 min, range) | currents elicited by kainate, AMPA or quisqualate after reduction ([2]; 1 mM DTT) | death of retinal ganglion cells exposed to glutamate in the culture medium ([3]; APV 200 μM, DTT transient exposure, 12-24 hr) | increase of APV-preventable, glutamate-induced death ([3]; brief (5-10 min) exposure to DTT, survival monitored 12-24 hr) [%]
O=C(O)c1cc(SSc2ccc([N+](=O)[O-])c(C(=O)O)c2)ccc1[N+](=O)[O-] [DTNB, 5′-5′-dithiobis-2-nitrobenzoic acid] | 81.6%±24.1% | 43%-100% | did not affect | totally blocked | – | – | – | – | –
O[C@@H](CS)[C@@H](O)CS [DTT, dithothreitol] | – | – | – | – | 530%±280% | 200%-860% | no substantial effect | substantially increased death | 70±9
